According to ChEMBL document CHEMBL3885881, “DrugMatrix”:

Species on record: Rattus norvegicus
Test: DrugMatrix - Regimen: Daily Repeat
Assay type: toxicity, organism-based, Sprague-Dawley
Parameters: regimen Daily Repeat, gender Male, age 6-8 weeks
Conditions: in vivo, iv, 50 mg/kg, dose level Low, vehicle 100 % SALINE; for ABSOLUTE BASOPHIL / ABSOLUTE EOSINOPHIL / ABSOLUTE LYMPHOCYTE / ABSOLUTE MONOCYTE / ABSOLUTE SEGMENTED NEUTROPHIL / BASOPHIL / EOSINOPHIL / ERYTHROCYTE COUNT / HEMATOCRIT / HEMOGLOBIN / LEUKOCYTE COUNT / LYMPHOCYTE / MEAN CORPUSCULAR HEMOGLOBIN / MEAN CORPUSCULAR HEMOGLOBIN CONCENTRATION / MEAN CORPUSCULAR VOLUME / MONOCYTE / NEUTROPHIL / NUCLEATED RED BLOOD CELLS / PLATELET COUNT: tissue Blood; for ALANINE AMINOTRANSFERASE / ALBUMIN / ALKALINE PHOSPHATASE / ASPARTATE AMINOTRANSFERASE / BLOOD UREA NITROGEN / CARBON DIOXIDE / CHLORIDE / CHOLESTEROL / CREATINE PHOSPHOKINASE / CREATININE / GLUCOSE / LACTATE DEHYDROGENASE / LIPASE / PHOSPHORUS / POTASSIUM / SODIUM / TOTAL BILIRUBIN / TOTAL PROTEIN / URIC ACID: tissue Plasma

With `CC1(C)S[C@@H]2[C@H](NC(=O)Cc3ccccc3)C(=O)N2[C@H]1C(=O)O` [PENICILLIN G] the “ABSOLUTE BASOPHIL” value (72 h, time 3 day) was 0 CELLS/uL, the “ABSOLUTE EOSINOPHIL” value (72 h, time 3 day) was 74.67 CELLS/uL and the “ABSOLUTE LYMPHOCYTE” value (72 h, time 3 day) was 13141.67 CELLS/uL. The “ABSOLUTE MONOCYTE” value (72 h, time 3 day) was 398.33 CELLS/uL, the “ABSOLUTE SEGMENTED NEUTROPHIL” value (72 h, time 3 day) was 1318.67 CELLS/uL and the BASOPHIL (72 h, time 3 day) was 0%. For the same compound, the EOSINOPHIL (72 h, time 3 day) was 0.67%, the “ERYTHROCYTE COUNT” value (72 h, time 3 day) was 5.85 x10E6/uL and the HEMATOCRIT (72 h, time 3 day) was 37.47%. For the same compound, the HEMOGLOBIN (72 h, time 3 day) was 13.8 G/DL, the “LEUKOCYTE COUNT” value (72 h, time 3 day) was 14.93 x10E3/uL and the LYMPHOCYTE (72 h, time 3 day) was 87.67%. For the same compound, the “MEAN CORPUSCULAR HEMOGLOBIN” value (72 h, time 3 day) was 23.6 pg, the “MEAN CORPUSCULAR HEMOGLOBIN CONCENTRATION” value (72 h, time 3 day) was 36.87 G/DL and the “MEAN CORPUSCULAR VOLUME” value (72 h, time 3 day) was 64.07 fL. For the same compound, the MONOCYTE (72 h, time 3 day) was 2.67%, the NEUTROPHIL (72 h, time 3 day) was 9% and the “NUCLEATED RED BLOOD CELLS” value (72 h, time 3 day) was 0 /100WBC. The “PLATELET COUNT” value (72 h, time 3 day) was 1362 x10E3/uL, the “ALANINE AMINOTRANSFERASE” value (72 h, time 3 day) was 56.33 u/L and the ALBUMIN (72 h, time 3 day) was 4.37 G/DL. For the same compound, the “ALKALINE PHOSPHATASE” value (72 h, time 3 day) was 354 u/L, the “ASPARTATE AMINOTRANSFERASE” value (72 h, time 3 day) was 76.67 u/L and the “BLOOD UREA NITROGEN” value (72 h, time 3 day) was 13.33 mg/dL. The “CARBON DIOXIDE” value (72 h, time 3 day) was 24.33 mmol/L, the CHLORIDE (72 h, time 3 day) was 103.67 MEQ/L and the CHOLESTEROL (72 h, time 3 day) was 82.67 mg/dL. The “CREATINE PHOSPHOKINASE” value (72 h, time 3 day) was 122 u/L, the CREATININE (72 h, time 3 day) was 0.21 mg/dL and the GLUCOSE (72 h, time 3 day) was 172 mg/dL. For the same compound, the “LACTATE DEHYDROGENASE” value (72 h, time 3 day) was 124 u/L, the LIPASE (72 h, time 3 day) was 10 u/L and the PHOSPHORUS (72 h, time 3 day) was 12.63 mg/dL. The POTASSIUM (72 h, time 3 day) was 6.23 MEQ/L, the SODIUM (72 h, time 3 day) was 146.33 MEQ/L and the “TOTAL BILIRUBIN” value (72 h, time 3 day) was 0.23 mg/dL. The “TOTAL PROTEIN” value (72 h, time 3 day) was 6.07 G/DL, the “URIC ACID” value (72 h, time 3 day) was 1.57 mg/dL and the “ABSOLUTE BASOPHIL” value (120 h, time 5 day) was 0 CELLS/uL. For the same compound, the “ABSOLUTE EOSINOPHIL” value (120 h, time 5 day) was 0 CELLS/uL, the “ABSOLUTE LYMPHOCYTE” value (120 h, time 5 day) was 11488.33 CELLS/uL and the “ABSOLUTE MONOCYTE” value (120 h, time 5 day) was 166 CELLS/uL. The “ABSOLUTE SEGMENTED NEUTROPHIL” value (120 h, time 5 day) was 512.33 CELLS/uL, the BASOPHIL (120 h, time 5 day) was 0% and the EOSINOPHIL (120 h, time 5 day) was 0%. The “ERYTHROCYTE COUNT” value (120 h, time 5 day) was 5.58 x10E6/uL, the HEMATOCRIT (120 h, time 5 day) was 36.13% and the HEMOGLOBIN (120 h, time 5 day) was 13.43 G/DL. The “LEUKOCYTE COUNT” value (120 h, time 5 day) was 12.17 x10E3/uL, the LYMPHOCYTE (120 h, time 5 day) was 94.33% and the “MEAN CORPUSCULAR HEMOGLOBIN” value (120 h, time 5 day) was 24.07 pg. The “MEAN CORPUSCULAR HEMOGLOBIN CONCENTRATION” value (120 h, time 5 day) was 37.17 G/DL, the “MEAN CORPUSCULAR VOLUME” value (120 h, time 5 day) was 64.8 fL and the MONOCYTE (120 h, time 5 day) was 1.33%. The NEUTROPHIL (120 h, time 5 day) was 4.33%, the “NUCLEATED RED BLOOD CELLS” value (120 h, time 5 day) was 0 /100WBC and the “PLATELET COUNT” value (120 h, time 5 day) was 1442 x10E3/uL. The “ALANINE AMINOTRANSFERASE” value (120 h, time 5 day) was 49.33 u/L, the ALBUMIN (120 h, time 5 day) was 4.27 G/DL and the “ALKALINE PHOSPHATASE” value (120 h, time 5 day) was 371 u/L. The “ASPARTATE AMINOTRANSFERASE” value (120 h, time 5 day) was 81.33 u/L, the “BLOOD UREA NITROGEN” value (120 h, time 5 day) was 15.33 mg/dL and the “CARBON DIOXIDE” value (120 h, time 5 day) was 21.67 mmol/L. For the same compound, the CHLORIDE (120 h, time 5 day) was 107 MEQ/L, the CHOLESTEROL (120 h, time 5 day) was 79.33 mg/dL and the “CREATINE PHOSPHOKINASE” value (120 h, time 5 day) was 245.67 u/L. For the same compound, the CREATININE (120 h, time 5 day) was 0.42 mg/dL, the GLUCOSE (120 h, time 5 day) was 151.67 mg/dL and the “LACTATE DEHYDROGENASE” value (120 h, time 5 day) was 117.67 u/L. It also gave an LIPASE (120 h, time 5 day) of 11.5 u/L, a PHOSPHORUS (120 h, time 5 day) of 12.33 mg/dL and a POTASSIUM (120 h, time 5 day) of 6.79 MEQ/L. The SODIUM (120 h, time 5 day) was 144.2 MEQ/L, the “TOTAL BILIRUBIN” value (120 h, time 5 day) was 0.23 mg/dL and the “TOTAL PROTEIN” value (120 h, time 5 day) was 6.07 G/DL. The “URIC ACID” value (120 h, time 5 day) was 2 mg/dL.
